According to US20250135022A1, “METHODS FOR THE USE OF A B7-H3 ANTIBODY-DRUG CONJUGATE IN COMBINATION WITH A PD-1 X CTLA-4 BISPECIFIC MOLECULE” (MACROGENICS, INC., priority 2022, published 2025):

What was measured:
Calu-6 lung cancer cells = assay: Anti-tumor activity against subcutaneously implanted Calu-6 xenograft in CD-1 Nude mouse model; assay type: in vivo, CD-1 Nude mice; set-up: key to Anti-Tumor Activity: Highly Active: A T/C<10% is considered highly active; Active: a T/C≤42% is the minimum level of anti-tumor activity; Inactive: a T/C value of >42% is inactive
Procedure: In brief, ˜5×10^6 tumor cells (suspended in 1:1 media and MATRIGEL®) were subcutaneously implanted into the flank of female CD-1 Nude mice (homozygous; Charles River Laboratories). When tumors had reached a volume of approximately 100-235 mm3 (average 172 mm^3) on day 21, the mice were randomized and MGC018 or control vehicle were administered intravenously. In these studies, mice were administered either a single dose (12 mg/kg, QW×1) of MGC018 or a fractionated dose of MGC018 (0.3 mg/kg, 1 mg/kg, or 3 mg/kg) once a week for 4 weeks (QW×4W). Vehicle was administered as a control on day 21. Tumors were measured twice weekly by orthogonal measurements with electronic calipers, with tumor volumes calculated as: (length×width×height)/2. The tumor volume (relative to control) was determined (“T/C”). A finding that the tumor volume of treated animals had decreased to ≤5 mm^3 during the study period was considered to denote a Complete Regression (“CR”) and a Partial Regression (“PR”) was defined when tumors were reduced by 50% or greater from day of dosing at any point during the study.

[1] = Population pharmacokinetic (PPK) modeling of clinical PK data from a dose escalation trial; assay type: in vivo, human
Procedure: To analyze the pharmacokinetics of single and fractionated dose administration of MGC018, population pharmacokinetic (PPK) modeling was performed on clinical PK data from a dose escalation trial of MGC018. The initial model was based on data from 52 patients (516 ADC observations, 495 payload observations) and later updated with data from a total of 122 patients. MGC018 concentration values below quantification limit (BQL) were excluded from the analysis but were retained (commented out) in the data set.
The PPK analysis was conducted via nonlinear mixed-effects modeling with INTERACTION option (FOCEI) method using the NONMEM software, Version 7.5.0 (ICON Development Solutions). A quasi-steady-state (QSS) approximation of the target-mediated drug disposition (TMDD) model was used to describe the observed ADC data. All clearance and volume parameters were scaled allometrically. Goodness-of-fit plots and diagnostics (including standard error of the estimates) were used to evaluate the model fit. Due to the small sample size (52 subjects) no formal covariate analysis was attempted, although dependence of model parameters on weight, dose, and sex was investigated using diagnostic plots or by inclusion in the model. Ability of the model to describe strong covariate relationships identified by the model was tested by stratifying the diagnostic plots and model evaluation procedures by the covariates of interest. Specifically, the diagnostics and the predictive check procedures were stratified by dose (cohort).
Of the models evaluated, a linear 2-compartment with individual random effects on clearance (CL), central volume (Vc), peripheral volume (VP), inter-compartment clearance (Q), and proportional residual variability) best described the observed ADC data and advanced for further development of the combined ADC-free payload model. The free payload was described by a 1-compartment model with random effects on free payload clearance (CLTOX) and volume (VTOX) parameters with the input (from ADC) to both the central and delay compartments, with the random effects on the delay rate constant Ktr, CLTOX, and VTOX. The final model (Model 151) was selected based on diagnostics and goodness-of-fit and used to estimate MGC018 PK parameters. According to the model, elimination from the ADC was directed to the free payload, to the delay and central free payload compartments. Approximately equal fractions of ADC elimination went to each of these compartments. […] Thus, the free payload kinetics were defined by the kinetics of ADC and delay between ADC elimination and input to the free payload central compartment

A375.S2 melanoma cells = assay: Anti-tumor activity against subcutaneously implanted A375.S2 xenograft in SCID CES1c-KO mouse model; assay type: in vivo, SCID CES1c-KO mice
Procedure: In brief, ˜5×10^6 A375.S2 tumor cells (suspended in 1:1 media and MATRIGEL®) were subcutaneously implanted into the flank of female SCID CES1c-KO mice (Charles River Laboratories). When tumors had reached a volume of approximately 70-255 mm^3 (average 124 mm^3) on day 22, the mice were randomized and MGC018 or control vehicle were administered intravenously. In these studies, mice were administered either a single dose (1 mg/kg or 3 mg/kg, QW×1) of MGC018 or a fractionated dose of MGC018 (0.3 mg/kg or 1 mg/kg) once a week for 4 weeks (QW×4W). Vehicle was administered as a control on day 22. Tumors were measured twice weekly by orthogonal measurements with electronic calipers, with tumor volumes calculated as: (length×width×height)/2. The tumor volume (relative to control) was determined (“T/C”). A finding that the tumor volume of treated animals had decreased to ≤5 mm^3 during the study period was considered to denote a Complete Regression (“CR”) and a Partial Regression (“PR”) was defined when tumors were reduced by 50% or greater from day of dosing at any point during the study.

[2] = 0.3 mg/kg, QW × 4W, intravenous

## MGC018: B7-H3-ADC: Light and Heavy Chain of anti-B7-H3 hmAb-A (SEQ ID NO:19, 20) conjugated via maleimide, valine-citrulline, para-aminobenzyloxycarbonyl linker to seco-DUBA payload
Calu-6 lung cancer cells; [2]
  % T/C at Day 44: 78%
  Anti-Tumor Activity: Active
  CR (complete regression): 0/7
  PR (partial regression): 0/7
Calu-6 lung cancer cells; 1 mg/kg, QW × 4W, intravenous
  % T/C at Day 44: 30%
  Anti-Tumor Activity: Active
  CR (complete regression): 0/7
  PR (partial regression): 0/7
Calu-6 lung cancer cells; 3 mg/kg, QW × 4W, intravenous
  % T/C at Day 44: 17%
  Anti-Tumor Activity: Active
  CR (complete regression): 0/7
  PR (partial regression): 2/7
Calu-6 lung cancer cells; 12 mg/kg, QW × 1, intravenous
  % T/C at Day 44: 6%
  CR (complete regression): 0/7
  PR (partial regression): 2/7
Calu-6 lung cancer cells; fractionated 0.3, 1 and 3 mg/kg QW×4W vs single 12 mg/kg QW×1
  anti-tumor activity of fractionated dose compared with single dose: near equivalent anti-tumor activity
[1]; ADC, typical 75 kg subject
  central volume (V): 3.72 L
  clearance (CL): 1.68 L/day
  distribution half-life (t1/2 dist): 35.5 h
  inter-compartment clearance (Q): 0.0549 L/day
  peripheral volume (Vp): 0.700 L
  terminal half-life (t1/2 term): 220 h
[1]; Model 151
  half-life corresponding to delay rate constant: 130 h
[1]; delay between ADC elimination and input to free payload central compartment, Model 151
  delay rate constant (Ktr): 0.128 day⁻¹
[1]; free payload, Model 151
  free payload elimination rate constant KTOX=CLTOX/VTOX: 52.5 day⁻¹
  half-life corresponding to free payload elimination rate constant: about 20 minutes
A375.S2 melanoma cells; [2]
  % T/C at Day 53: 6%
  CR (complete regression): 0/7
  PR (partial regression): 4/7
A375.S2 melanoma cells; 1 mg/kg, QW × 1, intravenous
  % T/C at Day 53: 5%
  CR (complete regression): 0/7
  PR (partial regression): 7/7
A375.S2 melanoma cells; 1 mg/kg, QW × 4W, intravenous
  % T/C at Day 53: 1%
  CR (complete regression): 6/7
  PR (partial regression): 7/7
A375.S2 melanoma cells; 3 mg/kg, QW × 1, intravenous
  % T/C at Day 53: 1%
  CR (complete regression): 7/7
  PR (partial regression): 7/7
A375.S2 melanoma cells; fractionated 0.3 and 1 mg/kg QW×4W vs single 1 or 3 mg/kg QW×1
  anti-tumor activity of fractionated dose compared with single dose: near equivalent anti-tumor activity
